Results on twelve compounds are retold here after patent US20260242419A1, “A CYCLIC PEPTIDE FOR TRAPPING INTERLEUKIN-1 BETA” (Merck Sharp & Dohme LLC, priority 2023, published 2026).

Starred links: 1 amine or outer side, 2 acyl side, 3 side chain; linkers in the order of their positions; H or OH if unused. Non-standard residues stand in square brackets, D forms with d. Residues, ends and D or L forms follow the SMILES beside them. Phe(4-(cis-4-COOH-cHex)) = N[C@@H](Cc1ccc([C@H]2CC[C@@H](C(=O)O)CC2)cc1)C(=O)O; dPro(4R-(4-pyridylmethyl)) = O=C(O)[C@H]1C[C@@H](Cc2ccncc2)CN1; Trp(βS-Me,4-F) = C[C@@H](c1c[nH]c2cccc(F)c12)[C@H](N)C(=O)O; Bip(4'-COOH) = N[C@@H](Cc1ccc(-c2ccc(C(=O)O)cc2)cc1)C(=O)O; Ala(1-bicyclo(1.1.1)pentyl) = N[C@@H](CC12CC(C1)C2)C(=O)O; X21 = O=C(O)c1ccc(-c2ccc(C[C@H](N[*:1])C(=O)[*:2])cn2)cc1; dPro(4R-Bzl(4-F)) = O=C(O)[C@H]1C[C@@H](Cc2ccc(F)cc2)CN1; Ala(pyrimidin-5-yl) = N[C@@H](Cc1cncnc1)C(=O)O; Phe(4-COOH) = N[C@@H](Cc1ccc(C(=O)O)cc1)C(=O)O; Ala(2-pyrazinyl) = N[C@@H](Cc1cnccn1)C(=O)O; Pro(cis-4-F) = O=C(O)[C@@H]1C[C@H](F)CN1; X23 = O=C([C@H](Cc1ncccn1)N[*:1])[*:2]; X47 = O=C([C@H](Cc1cccnn1)N[*:1])[*:2]; 4Pal = N[C@@H](Cc1ccncc1)C(=O)O; d(αMeS) = C[C@@](N)(CO)C(=O)O; αMeS = C[C@](N)(CO)C(=O)O; Orn = NCCC[C@H](N)C(=O)O; Api = NC1(C(=O)O)CCNCC1; Dab = NCC[C@H](N)C(=O)O; Dap = NC[C@H](N)C(=O)O; Aib = CC(C)(N)C(=O)O

In the assay the target is T1, IL-1β (Homo sapiens, UniProt P01584).
T1 construct: purchased BioLegend 579404
T1 sequence (P01584 117-269): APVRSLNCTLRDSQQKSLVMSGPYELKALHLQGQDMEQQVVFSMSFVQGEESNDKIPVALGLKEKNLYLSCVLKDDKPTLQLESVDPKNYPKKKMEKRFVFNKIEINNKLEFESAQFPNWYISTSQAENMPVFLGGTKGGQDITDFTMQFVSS
The assay is described as follows: IL-6 assay in MRC5 cells: inhibition of IL-1β induced IL-6 secretion (AlphaLISA). The format is cell-based. As to conditions: inhibition of IL-1β induced IL-6 secretion in MRC5 cells; read-out: MRC5 IC50. The essentials:
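Compound was pre-incubated 1 h at ambient temperature with recombinant human IL-1β at 2λ EC80 before adding human lung fibroblast MRC5 cells (3000/well) in EMEM with 0.025% BSA. After overnight culture at 37 °C, 5% CO2, secreted IL-6 in conditioned medium was measured by AlphaLISA; IC50 from 4-parameter logistic fits.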
Background: Bead proximity is the source of the signal in Alpha formats.
As for `C[C@@H](c1c[nH]c2cccc(F)c12)[C@@H]1NC(=O)[C@@H]2C[C@H](F)CN2C(=O)CNC(=O)[C@H](Cc2ccc(C(=O)O)cc2)NC(=O)[C@H](CC23CC(C2)C3)NC(=O)[C@H](Cc2ccc(-c3ccc(C(=O)O)cc3)nc2)NC(=O)[C@H]2C[C@@H](Cc3ccc(F)cc3)CN2C(=O)CNC(=O)[C@H](CCN)NC(=O)[C@H](CCC(N)=O)NC(=O)[C@H](CN)NC(=O)C(C)(C)NC(=O)[C@H](Cc2c[nH]c3ccccc23)NC(=O)[C@H](CCC(=O)O)NC(=O)C(C)(C)NC1=O` [Example 100] (cyclo([X21][Ala(1-bicyclo(1.1.1)pentyl)][Phe(4-COOH)]G[Pro(cis-4-F)][Trp(βS-Me,4-F)][Aib]EW[Aib][Dap]Q[Dab]G[dPro(4R-Bzl(4-F))])), the IC50 came out at 0.074 nM.

Turning to `C[C@@H](c1c[nH]c2cccc(F)c12)[C@@H]1NC(=O)[C@@H]2C[C@H](F)CN2C(=O)CNC(=O)[C@H](Cc2ccc(C(=O)O)cc2)NC(=O)[C@H](Cc2ccncc2)NC(=O)[C@H](Cc2ccc(-c3ccc(C(=O)O)cc3)cc2)NC(=O)[C@H]2C[C@@H](Cc3ccc(F)cc3)CN2C(=O)CNC(=O)[C@H](CCN)NC(=O)[C@H](CCC(N)=O)NC(=O)[C@H](Cc2cnccn2)NC(=O)C(C)(C)NC(=O)[C@H](Cc2c[nH]c3ccccc23)NC(=O)[C@H](CCC(=O)O)NC(=O)C(C)(C)NC1=O` [Example 101] (cyclo([4Pal][Phe(4-COOH)]G[Pro(cis-4-F)][Trp(βS-Me,4-F)][Aib]EW[Aib][Ala(2-pyrazinyl)]Q[Dab]G[dPro(4R-Bzl(4-F))][Bip(4'-COOH)])), the IC50 stood at 0.021 nM.

Take `C[C@@H](c1c[nH]c2cccc(F)c12)[C@@H]1NC(=O)[C@@H]2C[C@H](F)CN2C(=O)CNC(=O)[C@H](Cc2ccc(C(=O)O)cc2)NC(=O)[C@H](Cc2ccncc2)NC(=O)[C@H](Cc2ccc(-c3ccc(C(=O)O)cc3)cc2)NC(=O)[C@H]2C[C@@H](Cc3ccc(F)cc3)CN2C(=O)CNC(=O)[C@H](CCN)NC(=O)[C@H](CCC(N)=O)NC(=O)[C@H](Cc2cccnn2)NC(=O)C(C)(C)NC(=O)[C@H](Cc2c[nH]c3ccccc23)NC(=O)[C@H](CCC(=O)O)NC(=O)C(C)(C)NC1=O` [Example 102] (cyclo([Bip(4'-COOH)][4Pal][Phe(4-COOH)]G[Pro(cis-4-F)][Trp(βS-Me,4-F)][Aib]EW[Aib][X47]Q[Dab]G[dPro(4R-Bzl(4-F))])): the IC50 came to 0.021 nM.

Regarding `C[C@@H](c1c[nH]c2cccc(F)c12)[C@@H]1NC(=O)[C@@H]2C[C@H](F)CN2C(=O)CNC(=O)[C@H](Cc2ccc(C(=O)O)cc2)NC(=O)[C@H](CC23CC(C2)C3)NC(=O)[C@H](Cc2ccc([C@H]3CC[C@@H](C(=O)O)CC3)cc2)NC(=O)[C@H]2C[C@@H](Cc3ccc(F)cc3)CN2C(=O)CNC(=O)[C@H](CCN)NC(=O)[C@H](CCC(N)=O)NC(=O)[C@H](CO)NC(=O)C2(CCNCC2)NC(=O)[C@H](Cc2c[nH]c3ccccc23)NC(=O)[C@H](CCC(=O)O)NC(=O)C(C)(C)NC1=O` [Example 105] (cyclo([Phe(4-(cis-4-COOH-cHex))][Ala(1-bicyclo(1.1.1)pentyl)][Phe(4-COOH)]G[Pro(cis-4-F)][Trp(βS-Me,4-F)][Aib]EW[Api]SQ[Dab]G[dPro(4R-Bzl(4-F))])), the IC50 is 0.083 nM.

As to `C[C@@H](c1c[nH]c2cccc(F)c12)[C@@H]1NC(=O)[C@@H]2C[C@H](F)CN2C(=O)CNC(=O)[C@H](Cc2ccc(C(=O)O)cc2)NC(=O)[C@H](CC23CC(C2)C3)NC(=O)[C@H](Cc2ccc([C@H]3CC[C@@H](C(=O)O)CC3)cc2)NC(=O)[C@H]2C[C@@H](Cc3ccc(F)cc3)CN2C(=O)CNC(=O)[C@H](CCN)NC(=O)[C@H](CCC(N)=O)NC(=O)[C@H](CO)NC(=O)C(C)(C)NC(=O)[C@H](Cc2c[nH]c3ccccc23)NC(=O)[C@H](CO)NC(=O)C(C)(C)NC1=O` [Example 106] (cyclo([Phe(4-(cis-4-COOH-cHex))][Ala(1-bicyclo(1.1.1)pentyl)][Phe(4-COOH)]G[Pro(cis-4-F)][Trp(βS-Me,4-F)][Aib]SW[Aib]SQ[Dab]G[dPro(4R-Bzl(4-F))])), the IC50 was 0.031 nM.

For the compound `C[C@@H](c1c[nH]c2cccc(F)c12)[C@@H]1NC(=O)[C@@H]2C[C@H](F)CN2C(=O)CNC(=O)[C@H](Cc2ccc(C(=O)O)cc2)NC(=O)[C@H](CC23CC(C2)C3)NC(=O)[C@H](Cc2ccc([C@H]3CC[C@@H](C(=O)O)CC3)cc2)NC(=O)[C@H]2C[C@@H](Cc3ccc(F)cc3)CN2C(=O)CNC(=O)[C@H](CCN)NC(=O)[C@H](CCC(N)=O)NC(=O)[C@H](CO)NC(=O)C(C)(C)NC(=O)[C@H](Cc2c[nH]c3ccccc23)NC(=O)[C@H](CCC(=O)O)NC(=O)[C@](C)(CO)NC1=O` [Example 107] (cyclo([Phe(4-(cis-4-COOH-cHex))][Ala(1-bicyclo(1.1.1)pentyl)][Phe(4-COOH)]G[Pro(cis-4-F)][Trp(βS-Me,4-F)][αMeS]EW[Aib]SQ[Dab]G[dPro(4R-Bzl(4-F))])), the IC50 was 0.063 nM.

`C[C@@H](c1c[nH]c2cccc(F)c12)[C@@H]1NC(=O)[C@@H]2C[C@H](F)CN2C(=O)CNC(=O)[C@H](Cc2ccc(C(=O)O)cc2)NC(=O)[C@H](Cc2ccncc2)NC(=O)[C@H](Cc2ccc(-c3ccc(C(=O)O)cc3)cc2)NC(=O)[C@H]2C[C@@H](Cc3ccncc3)CN2C(=O)CNC(=O)[C@H](CCCN)NC(=O)[C@H](CCC(N)=O)NC(=O)[C@H](Cc2cncnc2)NC(=O)C(C)(C)NC(=O)[C@H](Cc2c[nH]c3ccccc23)NC(=O)[C@H](CO)NC(=O)C(C)(C)NC1=O` [Example 108] (cyclo([Bip(4'-COOH)][4Pal][Phe(4-COOH)]G[Pro(cis-4-F)][Trp(βS-Me,4-F)][Aib]SW[Aib][Ala(pyrimidin-5-yl)]Q[Orn]G[dPro(4R-(4-pyridylmethyl))])): the IC50 amounted to 0.024 nM.

With `C[C@@H](c1c[nH]c2cccc(F)c12)[C@@H]1NC(=O)[C@@H]2C[C@H](F)CN2C(=O)CNC(=O)[C@H](Cc2ccc(C(=O)O)cc2)NC(=O)[C@H](CC23CC(C2)C3)NC(=O)[C@H](Cc2ccc(-c3ccc(C(=O)O)cc3)cc2)NC(=O)[C@H]2C[C@@H](Cc3ccncc3)CN2C(=O)CNC(=O)[C@H](CCCN)NC(=O)[C@H](CCC(N)=O)NC(=O)[C@H](Cc2cncnc2)NC(=O)C(C)(C)NC(=O)[C@H](Cc2c[nH]c3ccccc23)NC(=O)[C@H](CO)NC(=O)C(C)(C)NC1=O` [Example 109] (cyclo([Bip(4'-COOH)][Ala(1-bicyclo(1.1.1)pentyl)][Phe(4-COOH)]G[Pro(cis-4-F)][Trp(βS-Me,4-F)][Aib]SW[Aib][Ala(pyrimidin-5-yl)]Q[Orn]G[dPro(4R-(4-pyridylmethyl))])), the IC50 was 0.036 nM.

`C[C@@H](c1c[nH]c2cccc(F)c12)[C@@H]1NC(=O)[C@@H]2C[C@H](F)CN2C(=O)CNC(=O)[C@H](Cc2ccc(C(=O)O)cc2)NC(=O)[C@H](CC23CC(C2)C3)NC(=O)[C@H](Cc2ccc(-c3ccc(C(=O)O)cc3)cc2)NC(=O)[C@H]2C[C@@H](Cc3ccc(F)cc3)CN2C(=O)CNC(=O)[C@H](CCN)NC(=O)[C@H](CCC(N)=O)NC(=O)[C@H](CCCN)NC(=O)C(C)(C)NC(=O)[C@H](Cc2c[nH]c3ccccc23)NC(=O)[C@H](CO)NC(=O)C(C)(C)NC1=O` [Example 110] (cyclo([Bip(4'-COOH)][Ala(1-bicyclo(1.1.1)pentyl)][Phe(4-COOH)]G[Pro(cis-4-F)][Trp(βS-Me,4-F)][Aib]SW[Aib][Orn]Q[Dab]G[dPro(4R-Bzl(4-F))])): the half-inhibitory concentration (IC50) came out at 0.038 nM.

As for `C[C@@H](c1c[nH]c2cccc(F)c12)[C@@H]1NC(=O)[C@@H]2C[C@H](F)CN2C(=O)CNC(=O)[C@H](Cc2ccc(C(=O)O)cc2)NC(=O)[C@H](Cc2ccncc2)NC(=O)[C@H](Cc2ccc(-c3ccc(C(=O)O)cc3)cc2)NC(=O)[C@H]2C[C@@H](Cc3ccncc3)CN2C(=O)CNC(=O)[C@H](CCN)NC(=O)[C@H](CCC(N)=O)NC(=O)[C@H](Cc2cncnc2)NC(=O)[C@@](C)(CO)NC(=O)[C@H](Cc2c[nH]c3ccccc23)NC(=O)[C@H](CO)NC(=O)C(C)(C)NC1=O` [Example 111] (cyclo([Bip(4'-COOH)][4Pal][Phe(4-COOH)]G[Pro(cis-4-F)][Trp(βS-Me,4-F)][Aib]SW[d(αMeS)][Ala(pyrimidin-5-yl)]Q[Dab]G[dPro(4R-(4-pyridylmethyl))])), the IC50 stood at 0.019 nM.

For the compound `C[C@@H](c1c[nH]c2cccc(F)c12)[C@@H]1NC(=O)[C@@H]2C[C@H](F)CN2C(=O)CNC(=O)[C@H](Cc2ccc(C(=O)O)cc2)NC(=O)[C@H](CC23CC(C2)C3)NC(=O)[C@H](Cc2ccc(-c3ccc(C(=O)O)cc3)cc2)NC(=O)[C@H]2C[C@@H](Cc3ccncc3)CN2C(=O)CNC(=O)[C@H](CCN)NC(=O)[C@H](CCC(N)=O)NC(=O)[C@H](Cc2cncnc2)NC(=O)[C@@](C)(CO)NC(=O)[C@H](Cc2c[nH]c3ccccc23)NC(=O)[C@H](CO)NC(=O)C(C)(C)NC1=O` [Example 112] (cyclo([Bip(4'-COOH)][Ala(1-bicyclo(1.1.1)pentyl)][Phe(4-COOH)]G[Pro(cis-4-F)][Trp(βS-Me,4-F)][Aib]SW[d(αMeS)][Ala(pyrimidin-5-yl)]Q[Dab]G[dPro(4R-(4-pyridylmethyl))])), the IC50 was found to be 0.018 nM.

In the case of `C[C@@H](c1c[nH]c2cccc(F)c12)[C@@H]1NC(=O)[C@@H]2C[C@H](F)CN2C(=O)CNC(=O)[C@H](Cc2ccc(C(=O)O)cc2)NC(=O)[C@H](Cc2ccncc2)NC(=O)[C@H](Cc2ccc(-c3ccc(C(=O)O)cc3)cc2)NC(=O)[C@H]2C[C@@H](Cc3ccc(F)cc3)CN2C(=O)CNC(=O)[C@H](CCN)NC(=O)[C@H](CCC(N)=O)NC(=O)[C@H](Cc2ncccn2)NC(=O)C(C)(C)NC(=O)[C@H](Cc2c[nH]c3ccccc23)NC(=O)[C@H](CCC(=O)O)NC(=O)C(C)(C)NC1=O` [Example 113] (cyclo([Bip(4'-COOH)][4Pal][Phe(4-COOH)]G[Pro(cis-4-F)][Trp(βS-Me,4-F)][Aib]EW[Aib][X23]Q[Dab]G[dPro(4R-Bzl(4-F))])), the IC50 is 0.018 nM.

What is called IC50 is the concentration that gives 50% inhibition.
